In paper PMC2775485 (Journal of medicinal chemistry, 2009):

Assays:
hMC1R [1] = molecular target: T1, hMC1R (Homo sapiens, UniProt Q01726); assay: Adenylate cyclase; assay type: cell-based; conditions: for functional class at hMC1R: class by maximal cAMP level relative to MTII; for fold drop in potency: hMC1R, Ac-NDP-γ-MSH-NH2 series, comparator implied: peptide 11
hMC3R = hMC3R (Homo sapiens, UniProt P41968); assay: Competition binding on whole HEK293 cells, 125I-[Nle4,DPhe7]-α-MSH; conditions: concentration of peptide at 50% specific binding, N=4; NB: No Binding at 10^-5 M
hMC4R [2] = molecular target: T2, hMC4R (Homo sapiens, UniProt P32245); assay: as above; conditions: for hMC4R IC50 / IC50: concentration of peptide at 50% specific binding, N=4, NB: No Binding at 10^-5 M; for IC50: read-out: hMC4R IC50
hMC4R [3] = molecular target: T2, hMC4R; assay: Adenylate cyclase; assay type: cell-based; conditions: class by maximal cAMP level relative to MTII
hMC1R [4] = molecular target: T1, hMC1R; assay: Competition binding on whole HEK293 cells, 125I-[Nle4,DPhe7]-α-MSH; conditions: Ac-NDP-γ-MSH-NH2 series, comparator implied: peptide 11
[5] = molecular target: human melanocortin 1 receptor (human) (UniProt Q01726)
[6] = molecular target: human melanocortin 3 receptor (human) (UniProt P41968)
[7] = molecular target: human melanocortin 4 receptor (human) (UniProt P32245)
[8] = molecular target: human melanocortin 5 receptor (human) (UniProt P33032)
[9] = molecular target: human melanocortin 1 receptor (human) (UniProt Q01726); assay: radioligand binding
hMC4R [10] = molecular target: T2, hMC4R; conditions: cited from earlier work

T1 sequence (Q01726 whole entry): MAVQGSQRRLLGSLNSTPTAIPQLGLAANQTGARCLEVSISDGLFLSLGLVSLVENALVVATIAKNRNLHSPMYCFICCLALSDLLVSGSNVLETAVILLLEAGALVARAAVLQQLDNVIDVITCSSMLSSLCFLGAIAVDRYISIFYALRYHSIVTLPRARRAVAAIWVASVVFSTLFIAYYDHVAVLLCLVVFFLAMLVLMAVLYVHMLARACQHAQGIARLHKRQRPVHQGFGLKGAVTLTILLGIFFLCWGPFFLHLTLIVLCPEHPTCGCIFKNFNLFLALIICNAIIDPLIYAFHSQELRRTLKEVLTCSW
Sequence of human melanocortin 1 receptor (human) (Q01726 whole entry): as above
T2 sequence (P32245 whole entry): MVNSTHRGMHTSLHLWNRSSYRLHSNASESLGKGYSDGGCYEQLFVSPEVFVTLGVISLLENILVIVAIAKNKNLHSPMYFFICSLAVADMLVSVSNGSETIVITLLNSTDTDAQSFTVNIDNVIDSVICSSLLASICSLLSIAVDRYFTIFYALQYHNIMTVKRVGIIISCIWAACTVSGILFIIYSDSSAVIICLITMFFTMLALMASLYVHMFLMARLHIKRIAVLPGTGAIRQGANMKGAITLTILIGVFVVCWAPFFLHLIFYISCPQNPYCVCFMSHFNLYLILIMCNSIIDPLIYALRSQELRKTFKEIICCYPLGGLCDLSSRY
Sequence of human melanocortin 3 receptor (human) (P41968 whole entry): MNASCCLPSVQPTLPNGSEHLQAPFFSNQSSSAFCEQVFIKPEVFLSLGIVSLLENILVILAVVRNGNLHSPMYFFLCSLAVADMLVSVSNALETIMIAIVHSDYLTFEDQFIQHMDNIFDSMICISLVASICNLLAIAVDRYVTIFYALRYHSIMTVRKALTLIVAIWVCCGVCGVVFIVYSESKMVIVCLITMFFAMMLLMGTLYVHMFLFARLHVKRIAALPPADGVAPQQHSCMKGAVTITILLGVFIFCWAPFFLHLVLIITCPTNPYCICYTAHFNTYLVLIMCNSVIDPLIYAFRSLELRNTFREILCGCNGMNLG
Sequence of hMC3R (P41968 whole entry): as above
Sequence of human melanocortin 5 receptor (human) (P33032 whole entry): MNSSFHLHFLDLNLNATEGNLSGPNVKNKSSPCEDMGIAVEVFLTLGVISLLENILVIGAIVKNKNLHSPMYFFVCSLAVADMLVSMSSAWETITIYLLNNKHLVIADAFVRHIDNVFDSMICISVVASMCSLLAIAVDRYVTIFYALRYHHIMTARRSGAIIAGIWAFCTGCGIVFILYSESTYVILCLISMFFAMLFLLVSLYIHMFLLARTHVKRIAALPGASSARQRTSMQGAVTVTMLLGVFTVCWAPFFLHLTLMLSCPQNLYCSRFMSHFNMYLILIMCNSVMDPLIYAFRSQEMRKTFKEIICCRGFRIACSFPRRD
Sequence of human melanocortin 4 receptor (human) (P32245 whole entry): as the sequence (P32245 whole entry) above

Q: Which “functional class at hMC1R” value (hMC1R [1]) does the source give for CCCC[C@H](NC(C)=O)C(=O)N[C@H]1CC(=O)NCCCC[C@@H](C(N)=O)NC(=O)[C@H](Cc2c[nH]c3ccccc23)NC(=O)[C@@H]2CCCN2C(=O)[C@@H](Cc2ccccc2)NC(=O)[C@H](Cc2c[nH]cn2)NC1=O [Peptide 1] here?
A: partial agonist (triggers a maximal cAMP level that is 20%-80% of MTII triggered maximal cAMP response)

Q: Which results are given for CCCC[C@H](NC(C)=O)C(=O)N[C@H]1CC(=O)NCCCC[C@@H](C(N)=O)NC(=O)[C@H](Cc2c[nH]c3ccccc23)NC(=O)[C@H](CCCNC(=N)N)NC(=O)[C@@H](Cc2ccccc2)NC(=O)[C@@H]2C[C@@H](NC(=N)N)CN2C1=O [Peptide 4]?
A: hMC3R IC50 (hMC3R): single-digit nanomolar range; hMC4R IC50 (hMC4R [2]): single-digit nanomolar range

Q: For CCCC[C@H](NC(C)=O)C(=O)N[C@H]1CC(=O)NCCCC[C@@H](C(N)=O)NC(=O)[C@H](Cc2c[nH]c3ccccc23)NC(=O)[C@H](CCCNC(=N)N)NC(=O)[C@@H](Cc2ccccc2)NC(=O)[C@@H]2C[C@H](NC(=N)N)CN2C1=O [Peptide 5], which “hMC3R IC50” value (hMC3R) is on record?
A: single-digit nanomolar range

Q: What about the “hMC4R IC50” value (hMC4R [2]) of the same molecule?
A: single-digit nanomolar range

Q: With CCCC[C@H](NC(C)=O)C(=O)N[C@H]1CC(=O)NCCCC[C@@H](C(N)=O)NC(=O)[C@H](Cc2c[nH]c3ccccc23)NC(=O)[C@@H]2CCCN2C(=O)[C@@H](Cc2ccc3ccccc3c2)NC(=O)[C@H](Cc2c[nH]cn2)NC1=O [Peptide 6] as the molecule, how does the “functional class at hMC1R” value (hMC1R [1]) read?
A: partial agonist (triggers a maximal cAMP level that is 20%-80% of MTII triggered maximal cAMP response)

Q: For CCCC[C@H](NC(C)=O)C(=O)N[C@H]1CC(=O)NCCCC[C@@H](C(N)=O)NC(=O)[C@H](Cc2c[nH]c3ccccc23)NC(=O)[C@@H]2C[C@H](NC(=N)N)CN2C(=O)[C@@H](Cc2ccc3ccccc3c2)NC(=O)[C@H](Cc2c[nH]cn2)NC1=O [Peptide 8], which “functional class at hMC1R” value (hMC1R [1]) is on record?
A: full agonist (80%-100% level of MT II)

Q: Which “functional class at hMC1R” value (hMC1R [1]) does the source give for CCCC[C@H](NC(=O)[C@@H](NC(=O)[C@H](Cc1ccc(O)cc1)NC(C)=O)C(C)C)C(=O)NCC(=O)N[C@@H](Cc1c[nH]cn1)C(=O)N[C@H](Cc1ccccc1)C(=O)N1CCC[C@H]1C(=O)N[C@@H](Cc1c[nH]c2ccccc12)C(=O)N[C@@H](CC(=O)O)C(=O)N[C@@H](CCCNC(=N)N)C(=O)N[C@@H](Cc1ccccc1)C(=O)NCC(N)=O [Peptide 11] here?
A: partial agonist (triggers a maximal cAMP level that is 20%-80% of MTII triggered maximal cAMP response)

Q: And the “functional class at hMC4R” value (hMC4R [3])?
A: partial agonist (triggers a maximal cAMP level that is 20%-80% of MTII triggered maximal cAMP response)

Q: And the “binding affinity at the hMC4R, fold lower/weaker than peptide 1” value (hMC4R [2]; relative to control peptide 1)?
A: 25 fold

Q: What about the “binding affinity at the hMC4R, fold lower than peptide 6” value (hMC4R [2]; relative to peptide 6) of the same molecule?
A: 8 fold

Q: With CCCC[C@H](NC(=O)[C@@H](NC(=O)[C@H](Cc1ccc(O)cc1)NC(C)=O)C(C)C)C(=O)NCC(=O)N[C@@H](Cc1cnc[nH]1)C(=O)N[C@H](Cc1ccccc1)C(=O)N1C[C@H](NC(=N)N)C[C@H]1C(=O)N[C@@H](Cc1c[nH]c2ccccc12)C(=O)N[C@@H](CC(=O)O)C(=O)N[C@@H](CCCNC(=N)N)C(=O)N[C@@H](Cc1ccccc1)C(=O)NCC(N)=O [Peptide 12] as the molecule, how does the “functional class at hMC1R” value (hMC1R [1]) read?
A: full agonist (80%-100% level of MT II)

Q: What about the “fold drop in potency” value (hMC1R [1]) of the same molecule?
A: more than 11 fold

Q: What about the “fold drop in binding affinity” value (hMC1R [4]) of the same molecule?
A: 4-5 fold

Q: And the IC50 (hMC4R [2])?
A: > 10000 nM

Q: For CCCC[C@H](NC(=O)[C@@H](NC(=O)[C@H](Cc1ccc(O)cc1)NC(C)=O)C(C)C)C(=O)NCC(=O)N[C@@H](Cc1cnc[nH]1)C(=O)N[C@H](Cc1ccccc1)C(=O)N1C[C@@H](NC(=N)N)C[C@H]1C(=O)N[C@@H](Cc1c[nH]c2ccccc12)C(=O)N[C@@H](CC(=O)O)C(=O)N[C@@H](CCCNC(=N)N)C(=O)N[C@@H](Cc1ccccc1)C(=O)NCC(N)=O [Peptide 13], which “functional class at hMC1R” value (hMC1R [1]) is on record?
A: full agonist (80%-100% level of MT II)

Q: And the “fold drop in potency” value (hMC1R [1])?
A: more than 11 fold

Q: And the “fold drop in binding affinity” value (hMC1R [4])?
A: 4-5 fold

Q: What about the IC50 (hMC4R [2]) of the same molecule?
A: > 10000 nM

Q: For “peptide 1 (MTII with Arg8 replaced by Pro)”, which cAMP accumulation in receptor-transfected HEK293 cells, EC50 [5] is on record?
A: > 1000 nM

Q: And the cAMP accumulation, %max of MTII [5]?
A: 75%

Q: With “peptide 9 (SHU9119 with His6 replaced by 4-guanidinyl-Pro)” as the molecule, how does the cAMP accumulation in receptor-transfected HEK293 cells, EC50 [5] read?
A: 620 nM

Q: And the cAMP accumulation, %max of MTII [5]?
A: 25%

Q: What about the cAMP accumulation in receptor-transfected HEK293 cells, EC50 [6] of the same molecule?
A: 130 nM

Q: With “peptide 10 (SHU9119 with His6 replaced by 4-guanidinyl-Pro)” as the molecule, how does the cAMP accumulation in receptor-transfected HEK293 cells, EC50 [7] read?
A: 1400 nM

Q: And the cAMP accumulation in receptor-transfected HEK293 cells, EC50 [5]?
A: 1700 nM

Q: What about the cAMP accumulation, %max of MTII [5] of the same molecule?
A: 90%

Q: What about the cAMP accumulation, %max of MTII (EC50 cell also prints 0) [6] of the same molecule?
A: 0%

Q: And the cAMP accumulation in receptor-transfected HEK293 cells, EC50 [8]?
A: 85 nM

Q: What about the cAMP accumulation, %max of MTII [8] of the same molecule?
A: 52%

Q: What about the IC50 [9] of the same molecule?
A: 1.2 nM

B1: hASIP: Endogenous antagonist of the hMCRs, agouti signaling protein (protein, UniProt P42127 23-132, looked up)
Agouti-signaling protein: HLPPEEKLRDDRSLRSNSSVNLLDVPSVSIVALNKKSKQIGRKAAEKKRSSKKEASMKKVVRPRTPLSAPCVATRNSCKPPAPACCDPCASCQCRFFRSACSCRVLSLNC
Q: With B1 as the molecule, how does the “selectivity hMC4R/hMC3R” value (hMC4R [10]) read?
A: 46 fold
